The text below walks through data of patent EP0324130A2, “8-Glycine, 16-X, Des-19-Leucine-Calcitonin” (RORER INTERNATIONAL (OVERSEAS) INC. (a Delaware corporation), priority 1987, dated 1989).

Peptide text beside a SMILES is read from it.

This test has as its system serum calcium concentration. As to conditions: rat, in vivo, sc.

Description: Biological Assay of Calcitonin Analogs in Vivo
The biological potency of 8-glycine, 16-alanine des-19-leucine salmon calcitonin was determined by comparing the reduction of serum calcium concentration which followed administration by graded doses of Gly^8, Ala^16, des-Ley^19-SCT and synthetic salmon calcitonin standard. Rats were divided into four groups of seven animals, and each group was assigned at random to a dose of standard or test solution. Low and high doses were chosen from the linear portion of the dose-response curve. For the salmon calcitonin standard, the values were 0.7 and 2.1 ng. peptide/100 g. […] This does approximates 3 and 9 MU/100 g. […] Peptides were given by subcutaneous injection (0.2 ml/100 g. BW) and blood was withdrawn 1 hour later for serum calcium determination. Sera are processed and analyzed within two hours of collection.

Regarding `CC(C)C[C@H](NC(=O)CNC(=O)[C@@H]1CSSC[C@H](N)C(=O)N[C@@H](CO)C(=O)N[C@@H](CC(N)=O)C(=O)N[C@@H](CC(C)C)C(=O)N[C@@H](CO)C(=O)N[C@@H]([C@@H](C)O)C(=O)N1)C(=O)NCC(=O)N[C@@H](CCCCN)C(=O)N[C@@H](CC(C)C)C(=O)N[C@@H](CO)C(=O)N[C@@H](CCC(N)=O)C(=O)N[C@@H](CCC(=O)O)C(=O)N[C@@H](C)C(=O)N[C@@H](Cc1c[nH]cn1)C(=O)N[C@@H](CCCCN)C(=O)N[C@@H](CCC(N)=O)C(=O)N[C@H](C(=O)N[C@@H](Cc1ccc(O)cc1)C(=O)N1CCC[C@H]1C(=O)N[C@@H](CCCNC(=N)N)C(=O)N[C@H](C(=O)N[C@@H](CC(N)=O)C(=O)N[C@H](C(=O)NCC(=O)N[C@@H](CO)C(=O)NCC(=O)N[C@H](C(=O)N1CCC[C@H]1C(N)=O)[C@@H](C)O)[C@@H](C)O)[C@@H](C)O)[C@@H](C)O` [Gly^8, Ala^16, des-Leu'^9-SCT, [8-Glycine, 16-Alanine, des-19-Leucine] salmon calcitonin] (HELM PEPTIDE1{C.S.N.L.S.T.C.G.L.G.K.L.S.Q.E.A.H.K.Q.T.Y.P.R.T.N.T.G.S.G.T.P.[am]}$PEPTIDE1,PEPTIDE1,1:R3-7:R3$$$V2.0), the biological potency is listed as 2,500 IU/mg.
